This note sets out measurements from US10543193B2, “Processes useful for the preparation of 1-[3-(4-bromo-2-methyl-2H-pyrazol-3-yl)-4-methoxy-phenyl]-3-(2,4-difluoro-phenyl)-urea and crystalline forms related thereto” (ARENA PHARMACEUTICALS, INC., priority 2008, dated 2020).

The nature of data set [1]: Effect of milling and compression upon APD125 Form I (PXRD). Format: physicochemical. The method, then: Micronized APD125 Form I, was ground using a mortar and pestle, with samples withdrawn at 1-min, 5-min and 10-min time points for PXRD analyses to evaluate the impact of grinding upon the solid-state form of APD125 Form I. PXRD patterns were obtained pre- and post-milling. Additionally, micronized APD125 Form I, was compressed at 2 kp, 5 kp and 10 kp for 1 min per sample using a Carver press. The samples were then removed from the Carver press and lightly broken up using a mortar and pestle, prior to PXRD analysis to evaluate the impact of compression upon the solid-state form of APD125 Form I. PXRD patterns were obtained pre- and post-compression.
(§1) PXRD measurements were obtained using a Philips (PANalytical) X'Pert PRO theta/theta diffractometer (EQ 0233) equipped with an X'Celerator RTMS detector and utilizing copper Kα radiation, operating at 45 kV and 40 mA. The instrument radius was 239.5 mm, the mask filter was 20 mm, the soller slit was 0.04 radians, and a nickel filter and sample spinning were used during data acquisition. The application and instrument control software used were X'Pert Data Collector®, version 2.0c and XPERT-PRO®, version 1.6, respectively. The samples were scanned from 5° to 40°2θ in continuous mode, using a step size of 0.0167°2θ.

Data set [2] can be described thus: Methyl cellulose optimization: Form I to Form II conversion in water pastes (PXRD). Format: physicochemical. The method, then: In a small scintillation vial, 152.13 mg of micronized APD125 Form I, was spiked with sufficient deionized water to make a paste; the weight of the water added, 844.60 mg, was recorded, and the resulting mixture was stirred using a spatula to obtain a paste. The resulting sample, post-collection of an initial PXRD pattern, was capped, wrapped in tinfoil and stored at 40° C. until the next day, when a second PXRD pattern was obtained.
Using another small scintillation vial, 2.1183 g of micronized APD125 Form I, was mixed with 3.3619 g of a 0.5% w/v methyl cellulose to obtain a paste, which was immediately sampled for PXRD analysis to verify starting APD125 solid-state form, post-methyl cellulose addition. The remaining sample in the scintillation vial was split into two portions, placed in capped, parafilm-wrapped scintillation vials, which were then wrapped in tinfoil and stored at 40° C. and room temperature, respectively. PXRD patterns were collected at initial (t=0), 2-day and 16-day time points for each sample.
APD125 micronized Form I/PVP (1:8) blend, weighing 3.0081 g and containing 0.5% w/w methyl cellulose, was mixed with 3.71277 g of water to form a paste. After sampling the paste for an initial PXRD pattern, the remaining paste was split into two portions, placed in capped, parafilm-wrapped scintillation vials, which were then wrapped in tinfoil and stored at 40° C. and room temperature, respectively. PXRD patterns were collected at initial (t=0), 1-day, 7-day and 21-day time points.
For each blend, materials were dispensed (minus magnesium stearate) into a glass vial and blended for about 5 minutes. Magnesium stearate was added and the mixture was blended an additional 2 minutes. The final blend was compacted into standard round concave tablets ( 5/16″ diameter) with a total tablet weight of 200 mg and hardness of 10 kp using a Carver press. For each batch of tablets, several were crushed using a mortar and pestle to obtain a fine powder, from which a small sample was taken for PXRD analysis to confirm the initial APD125 polymorphic form. The remaining powder was weighed into a Qorpak® bottle, and ca. 50% w/w deionized water was added. The resulting mixture was stirred using a micro-spatula to wet the powder and form a paste. A Teflon® lid was screwed on tightly, and the prepared samples were stored in a 40° C. oven.
as §1, with “respectively. The API-based paste samples were” for “respectively. The samples were”, “size of 0.0167°2θ and a counting time of 40.005 seconds. The tablet granulation samples were scanned from 2° to 15°2θ in continuous mode, using a step size of 0.0167°2θ and a counting time of 1063.625 s.” for “size of 0.0167°2θ.”

Data set [3] has as its system Healthy Adults. In words: Phase 1 trials: waking EEG. The format is in vivo, humans.
Data set [4] concerns normal volunteers. In words: Afternoon nap model of insomnia in normal volunteers. The format is in vivo, humans. The source says:
Sleep onset latency was not decreased by APD125. In the afternoon nap model, APD125 decreased microarousals, the number of sleep stage shifts and number of awakenings after sleep onset.

In data set [5] the test system is insomnia patients. Briefly: Phase 2 trial: sleep maintenance. Format: in vivo, humans. An excerpt: The data from the APD125 Phase 2 study are consistent with Phase 1 data and support further development of APD125 for the treatment of insomnia patients who have difficulty maintaining sleep.

Structures are written as SMILES. “Also recorded” adds a separate entry of the source.

Take `COc1ccc(NC(=O)Nc2ccc(F)cc2F)cc1-c1c(Br)cnn1C` [APD125 Form I, 1-[3-(4-bromo-2-methyl-2H-pyrazol-3-yl)-4-methoxy-phenyl]-3-(2,4-difluoro-phenyl)-urea]: the “PXRD pattern after compression” value in data set [1] (compressed at 2 kp, 5 kp and 10 kp vs uncompressed) is recorded as “consistent with APD125 Form I; also recorded: all substantially comprise Form I”. The “PXRD pattern after grinding” value in data set [1] (mortar and pestle, 1 minute, 5 minutes and 10 minutes, listed as micronized APD125 Form I) is on record as “No significant changes in the PXRD patterns; also recorded: all substantially comprise Form I”. Moreover, the “conversion to Form II (PXRD)” value was “no evidence of conversion to Form II” in data set [2] (aqueous 0.5% w/w methyl cellulose, 40° C., after 16 days) and “did not convert to Form II” in data set [2] (suspended in aqueous 0.5% w/w methyl cellulose, room temperature, 21 days). Further, the “PXRD pattern (FIG. 8 legend)” value in data set [2] (aqueous 0.5% w/w methyl cellulose, room temperature and 40° C., after 16 days) was “substantially converted to Form II”. For the same compound, the “time to conversion to Form II (PXRD)” value in data set [2] (paste in water alone at 40° C.) is ≤ 24 h. Also, the “PXRD pattern (FIG. 9 legend)” value in data set [2] (paste in water alone at room temperature and 40° C. after 24 h) was “substantially converted to Form II”.
Consider `COc1ccc(NC(=O)Nc2ccc(F)cc2F)cc1-c1c(Br)cnn1C` [Compound I, 1-[3-(4-bromo-2-methyl-2H-pyrazol-3-yl)-4-methoxy-phenyl]-3-(2,4-difluoro-phenyl)-urea], for which, in data set [3], the “dose with maximal effects on waking EEG” value was in the range of 40 to 80 mg, the “effects on waking EEG” value was “vigilance-lowering effects” and the “time of peak effects on waking EEG after dosing” value was 2 to 4 h. Besides, in data set [4], the Sleep onset latency result is listed as “not decreased”; the “microarousals, number of sleep stage shifts and number of awakenings after sleep onset” value is “decreased”. Further, the “slow wave sleep and associated parameters” value in data set [4] (primarily during the early part of sleep) is “increased slow wave sleep and associated parameters in a dose-dependent manner”. For the same compound, in data set [5], the “next day cognitive effects” value is given as “without any limiting next day cognitive effects”. Besides, in data set [5] (compared to placebo), the “measurements of sleep maintenance” value is “statistically significant improvements”.
